Measured values from US9802929B2, “Benzo five-membered nitrogen heterocyclic piperidine or piperazine derivatives and preparation methods and pharmaceutical compositions thereof” (Shenyang Haiwang Biotechnology Co., Ltd., priority 2012, dated 2017).

Assays:
Ca^2+ channel = assay: Antagonism of CaCl2 cumulative contraction of rabbit aorta, pA2; settings: CaCl2 cumulative contraction after Ca-free hyperkalemia depolarization
Source text: Calcium-free K—H solution: Remove CaCl2 from K—H solution, add an equal number of moles of KCl, and add EDTA^−2Na^+ 0.1 mmol/L, while the other components remain unchanged.
Calcium-free hyperkalemia solution: Remove CaCl2 from hyperkalemia solution, add an equal number of moles of KCl, and add EDTA^−2Na^+ 0.1 mmol/L, while the other components remain unchanged.
(§1) Cut the chest open quickly after stunning, strip out the descending aorta, then after removing the surrounding connective tissue and adipose tissue (if performed serotonin receptor antagonist experiments, endothelial cells should be removed using a smooth stainless steel bars), cut the vessels into 3-5 mm vascular ring, then pass the steel hook through the blood vessel ring, with one end is fixed to the vent hook and the other end connected to the tension transducer, then place the specimens into bath tube containing 20 mL of nutrient solution, and record tension change by tension transducer. Maintain tube temperature at 37±0.5° C., and pass bubbles (95% O2+5% CO2) into the solution as a speed of 1-2 bubbles/minute. Place an initial load of 1.5 g on the rings, and change nutrient every 20 minutes, then balance for 2 hours and start test after baseline readings are stabilized.
After the tension is stabilized, wash the specimen three times and incubate with Ca-free K—H solution for 40 minutes; depolarize with Ca-free hyperkalemia solution for 20 minutes, and then add CaCl2 (10^−6-10^−2 mol/L) to the tube until a maximum response is achieved, and then record the curve. Then wash with K—H solution repeatedly, and replace with fresh K—H solution every 20 minutes; after balancing for 60 minutes and the baseline values are stabilized, wash the specimen again three times, and incubate with Ca-free K—H solution for 40 minutes; depolarize with Ca-free hyperkalemia solution for 20 minutes, and then add compound II-36 (3×10^−6 mol/L) to the tube, and incubate for 20 minutes; then add CaCl2 (10^−6-10^−2 mol/L) until a maximum response is achieved, and then record the curve. Mark CaCl2 contraction as ordinate using maximum response as 100% base. […] PA2 value of compound II-36 is 5.61±0.04 against CaCl2 contraction effect on rabbit aorta.
After the tension is stabilized, wash the specimen three times and incubate with Ca-free K—H solution for 40 minutes; depolarize with Ca-free hyperkalemia solution for 20 minutes, and then add CaCl2 (10^−6-10^−2 mol/L) to the tube until a maximum response is achieved, and then record the curve. […]

[1] = system: In Vitro Vascular Smooth Muscle of Rabbits; assay: Relaxant effect on in vitro rabbit vascular smooth muscle contraction induced by adrenaline (AD); settings: for EC50: Oryctolagus cuniculus; for relaxant effect against AD contraction (in words): rabbit vascular smooth muscle, AD 10^−5 mol/L
Source text: Krebs-Henseleit (K—H) physiological solution: NaCl 6.92 (concentration units), KCl 0.35, MgSO4 0.29, KH2PO4 0.16, CaCl2 0.28, NaHCO3 2.1, glucose 2.0 (g/L), pH 7.2.
Preparation of compound II-1 to II-87 solutions: Weigh a certain quality compound samples and dilute to concentrations (10^−10˜10^−3 mol/L) with distilled water, standby.
as §1
After tension readings are stabilized, record a certain length of tension curve, and add spasmogens agent AD (10^−5 mol/L) to induce contraction; if a maximum contract is achieved, wash the specimens thoroughly, and change K—H solution every 20 minutes, and then balance for 60 minutes; after baseline readings are stabilized, induce contract with spasmogens agent again. When the maximum contract in the later induction is consistent with the former induction, add compound II-1 to II-34 solutions (1×10^−10 to 1×10^−3 mol/L), II-35 to II-87 solutions (1×10^−8-1×10^−3 mol/L), and record the curves. Draw a dose-response curve using maximum relaxation response as 100%, relaxation percentage as ordinate and negative logarithms of the each concentration as abscissa.

[2] = relaxation of rabbit aortic rings contracted by AD (10^−5 mol/L)

Which results are given for FC(F)(F)c1cccc(N2CCN(CCCCn3cnc4ccccc43)CC2)c1 [Compound II-36, 1-(4-(4-(3-trifluoromethylphenyl)piperazin-1-yl)butyl)-1H-benzimidazole]?
PA2 value against CaCl2 contraction (Ca^2+ channel): 5.61±0.04; EC50 [1, 2]: 1860 nM; relaxant effect against AD contraction (in words) [1]: most significant relaxation effects

How did the “PA2 value against CaCl2 contraction” value (Ca^2+ channel) turn out when FC(F)(F)c1cccc(N2CCN(CCCCn3nnc4ccccc43)CC2)c1 [Compound II-65, 1-(4-(4-(3-trifluoromethylphenyl)piperazin-1-yl)butyl)-1H-benzotriazole] was run?
The value was 6.56±0.032.

And the “relaxant effect against AD contraction (in words)” value [1]?
Its value is “most significant relaxation effects”.

What about the “−logEC50” value [1, 2] of the same compound?
Its value is 6.19 ± 0.03.

What does the source list for c1ccc2c(c1)nnn2CCCCN1CCN(c2nsc3ccccc23)CC1 [Compound II-68, 3-(4-(4-(1H-benzotriazol-1-yl)butyl)piperazin-1-yl)benzisothiazole]?
PA2 value against CaCl2 contraction (Ca^2+ channel): 5.36±0.26; EC50 [1, 2]: 8.51 nM; relaxant effect against AD contraction (in words) [1]: most significant relaxation effects
